The text below walks through data of patent publication US20040186098A1 (Amgen Inc., priority 1997, published 2004).

Assay [1] concerns the target FKBP12 (Homo sapiens, UniProt P62942). Kind of assay: Ki test procedure: inhibition of peptidyl-prolyl isomerase (rotamase) activity of FKBP12, chymotrypsin-coupled assay. The format is biochemical. The settings on record: apparent Ki. An excerpt:
The inhibition of the prolyl peptidyl cis-trans isomerase activity of FKBP may be measured as an indicator of this affinity.
The binding to FBKP12 and inhibition of the peptidyl-prolyl isomerase (rotamase) activity of the compounds used in the inventive methods and pharmaceutical compositions can be evaluated by known methods described in the literature (Harding et al., Nature, 1989, 341:758-760; Holt et al. J. Am. Chem. Soc., 115:9923-9938).
The cis-trans isomerization of an alanine-proline bond in a model substrate, N-succinyl-Ala-Ala-Pro-Phe-p-nitroanilide, is monitored spectrophotometrically in a chymotrypsin-coupled assay, which releases para-nitroanilide from the trans form of the substrate. The inhibition of this reaction caused by the addition of different concentrations of inhibitor is determined, and the data is analyzed as a change in first-order rate constant as a function of inhibitor concentration to yield the apparent Ki values.
In a plastic cuvette are added […] of ice cold assay buffer (25 mM HEPES, pH 7.8, 100 mM NaCl), 10 mL of FKBP (2.5 mM in 10 mM Tris-Cl pH 7.5, 100 mM NaCl, 1 mM dithiothreitol), […] of chymotrypsin (50 mg/ml in 1 mM HCl) and […] of test compound at various concentrations in dimethyl sulfoxide. The reaction is initiated by the addition of 5 mL of substrate (succinyl-Ala-Phe-Pro-Phe-para-nitroanilide, 5 mg/mL in 2.35 mM LiCl in trifluoroethanol).
The absorbance at 390 nm versus time is monitored for 90 seconds using a spectrophotometer and the rate constants are determined from the absorbance versus time data files.

The test system of assay [2] is outer hair cells (OHC). Kind of assay: Intramiddle ear neomycin-induced ototoxicity, compound given into the middle ear, outer hair cell loss. The format is in vivo, guinea pig. The settings on record: 10 ng in the middle ear. As to the method:
Twenty guinea pigs used in this study were divided into two groups: 10 animals received 10 ng and 10 received 1 ng of the sensorineurotrophic compound.
Sensorineurotrophic compound stock A: A stock solution of sensorineurotrophic compound at 1 mg/10 ml in 100% ethanol was prepared and then diluted and mixed in Intralipid at 10 ng/100 μl.
Sensorineurotrophic compound stock B: A stock solution of sensorineurotrophic compound at 1 mg/100 ml in 100% ethanol was prepared and then diluted and mixed in 20% Intralipid at 1 ng/100 μl.
Animals were anesthetized with an intramuscular injection of a mixture of ketamine (80 mg/kg) and xylazine (4 mg/kg). Through a post-auricular incision, the right bulla was identified. A hole was drilled to open the middle ear cavity (care was taken not to injure the tympanic annulus or ossicles). A piece of gelfoam (˜2 mm^3) soaked with the sensorineurotrophic compound solution was inserted into the round window niche. The remaining sensorineurotrophic compound solution (˜100 μl) then was injected into the middle ear cavity. In the 10 ng dose group, 100 μl of sensorineurotrophic compound stock A was administered; and in the 1 ng dose group, 100 μl of sensorineurotrophic compound stock B was administered to the middle ear cavity. The hole was covered with a piece of clear plastic sheet which was stuck on the skull with a superglue. The incision was closed with clips. The same procedure was performed at the left bulla, but 100 μl of vehicle solution instead of sensorineurotrophic compound solution was administered. The animals were maintained in the prone position until they woke up to ensure filling of the middle ear cavity.
After two days, the animals received a second middle ear administration of sensorineurotrophic compound or vehicle together with neomycin. Solutions were prepared for the two groups of animals as follows:
Solution A: Neomycin was dissolved in sensorineurotrophic compound stock A described above. The final concentration of neomycin was 5 mg and the sensorineurotrophic compound concentration was 10 ng in a 100 μl vehicle solution.
Solution B: Neomycin was dissolved in sensorineurotrophic compound stock B described above. The final concentration of neomycin was 5 mg and the concentration of sensorineurotrophic compound was 1 ng in a 100 μl vehicle solution.
Solution C: Neomycin was dissolved in 20% Intralipid to a final concentration of 5 mg in 100 μl vehicle.
The plastic cover sheet on the bulla window was removed and the middle ear cavity was exposed. The old sensorineurotrophic compound or vehicle was sucked off and the old gelfoam was removed from the round window niche. A piece of gelfoam with fresh stock solution containing sensorineurotrophic compound and neomycin was administered to the round window niche, and the remaining solution (˜100 μl, solution A for the 10 ng dose group and solution B for the 1 ng dose group, respectively) was injected into the middle ear cavity of the right bulla.
Solution C (100 μl) was administered to the left ear for both groups in the same way.
Fourteen days after the second surgery, animals were perfused transcardially with a PBS flush followed by a fixative of 4% paraformaldehyde in 0.1M PBS. Immediately following the perfusion, the temporal bone was removed from the head. The bulla was opened and the cochlea was exposed. The apex was opened and the membrane of the round and oval windows was punched. The fixative solution was gently infused into the perilymphatic space through the apex hole and then allowed to flow out from windows. Then the cochleae were post-fixed in the same fixative solution for at least one day.
To identify and count hair cells in the organ of Corti, a direct immunostaining method was used to label the actin present naturally in the stereocilia bundles of the hair cells. The cochlea was dissected and the perilymphatic space was fully exposed. […]

The test system of assay [3] is Preyer's reflex. Kind of assay: Cisplatin-induced ototoxicity, compound given systemically, Preyer's reflex monitoring. The settings on record: 30 mg/kg s.c. daily, cisplatin 4 mg/kg i.p. x4; 10 days after the 4th injection; vehicle group more than 80%. The format is in vivo, guinea pig. How it is done:
Twenty male pigmented guinea pigs were divided into two groups (10 in each). One group was treated with Compound XXV while the other with vehicle—2 days prior to the first cisplatin injection. The test compound or vehicle was delivered by daily sub-cutaneous injection. On the day of injection, 100 mg of Compound XXV was dissolved in 1 ml of ethanol, then added to 20% Intralipid solution to a final volume of 3 ml and final Compound XXV concentration of 10 mg/0.3 ml. Each animal was subcutaneously injected with 30 mg/kg of Compound XXV solution Two days after the beginning of test compound injections (d2), cisplatin intraperitoneal injection was given to all animals at 4 mg/kg. After 3 days, a second cisplatin injection was given to all animals (d5). After another 3 days, a third injection (d8) and after 3 more days the fourth and last injection of cisplatin was given (d11). Test compound injections continued daily until day 21 (10 days after the last cisplatin injection).
Preyers' reflex is a rough indication of hearing function in rodents. […] The animals in this experiment were monitored daily for their Preyer's reflex. […]
Determination of hair cell numbers was determined in the same manner as in Example 4.

The mark [4] stands for this setting: rotamase inhibition, Table XLI, Formulas I to XIV.

FKBP12, sequence (P62942 whole entry, species assumed): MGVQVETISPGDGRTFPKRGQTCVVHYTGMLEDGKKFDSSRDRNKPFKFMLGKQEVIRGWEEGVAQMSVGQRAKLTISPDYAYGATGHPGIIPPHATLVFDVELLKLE

On to `O=C(C(=O)N1CCCCC1C(=O)SCCc1ccccc1)c1ccccc1` (stereo not shown) [Compound 14], for which, in assay [1] (setting [4]), the Ki turned out to be 313 nM.
As for `O=C(C(=O)N1CCC[C@H]1C(=O)SCCc1ccccc1)C1CCCC1` [Compound 28, 2-Phenyl-1-ethyl (2S)-1-(1-cyclopentyl-1,2-dioxoethyl)-2-pyrrolidinecarbothioate], the Ki in assay [1] (setting [4]) amounted to 108 nM.
The same measure, in the same setting: for `CCC(C)(C)C(=O)C(=O)N1CSC[C@@H]1C(=O)OCCCc1ccccc1` [Compound 80, 3-phenyl-1-propyl(2S)-1-(3,3-dimethyl-1,2-dioxopentyl)-2-(4-thiazolidine)carboxylate] the value was 215 nM.
With `CCC(C)(C)NC(=O)N1CCCC1C(=O)SCCCc1ccc(OC)cc1` (stereo not shown) [Compound 103], in assay [1] (FKBP12 rotamase inhibition), the Ki fell in the range of 51 to 200 nM.
Regarding `O=C(SCCCc1cccnc1)C1CCCN1C(=S)NC12CC3CC(CC(C3)C1)C2` (stereo not shown) [Compound 108], the Ki in assay [1] (FKBP12 rotamase inhibition) lay in the range of 1 to 50 nM.
On to `O=C(SC(CCc1ccccc1)CCc1ccccc1)C1CCCCN1C(=O)Nc1ccccc1` (stereo not shown) [Compound 113], for which the Ki in assay [1] (FKBP12 rotamase inhibition) is 1 to 50 nM.
Consider `CCC(C)(C)C(=O)C(=O)N1CCC[C@H]1C(=O)SCCC(c1ccccc1)c1ccccc1` [Compound XVI], for which the “difference in the number of OHCs lost, vehicle vs compound (FIG. 8)” value in assay [2] (5 mg neomycin, group mean) is given as “over 50%”. The “loss of hair cells in the second turn (turn 3), in words” value in assay [2] (neomycin (FIG. 9)) is “completely prevent the loss”. Moreover, the “loss of hair cells in the basal turn (turn 4)” value in assay [2] (neomycin, vehicle almost 100% (FIG. 9)) is given as “around 30%”.
As to `CCC(C)(C)C(=O)C(=O)N1CCCCC1C(=O)SCCC(c1ccccc1)c1ccccc1` (stereo not shown) [Compound XXV], in assay [3], the “animals that lost Preyer's reflex” value was “about 20 % of the animals”.
